In the supplement of paper PMC10307832:

Compound: CN1CCC(CC1)OC2=CC(=C(C=C2)NC3=NC=C4C(=N3)N(C(=O)N4C)C5CCCC5)OC [AZ3146] + CS(=O)(=O)N1CCN(Cc2cc3nc(-c4cccc5[nH]ncc45)nc(N4CCOCC4)c3s2)CC1 [Pictilisib] (partner 1 µM)
Experiment: relative viability (nuclei count vs DMSO), 5 days (fraction); higher = more cells survive
Conditions: first compound 2.53 µM
Outline: (§1)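 Lung cancer cell lines were seeded in 1536-well plates and dosed by pin tool the next day, with either a single drug or a fixed anchor-drug dose combined with five library-drug doses (not always all listed) spaced in √10 steps. Five days later, one step fixed the cells and stained their nuclei (final 0.05% Triton X-100, 1% formaldehyde, 1 ug/ml Hoechst), and nuclei were counted on 4× images. Relative viability is the nuclei count in treated wells divided by the count in vehicle wells, and each value is the median of duplicate plates.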

Cell Line	relative viability
A549	0.404
NCI-H1299	0.734
CAL-12T	0.554
NCI-H520	0.284
IA-LM	0.381
NCI-H661	0.463
COR-L 105	0.356
NCI-H1703	0.228
NCI-H1563	0.685
NCI-H1650	0.535
NCI-H2009	0.917
SK-MES-1	0.371
SW 1573	0.633

Same assay, conditions: first compound 8 µM

Cell Line	relative viability
PC-14	0.518
NCI-H1666	0.648
EKVX	0.545
NCI-H1755	0.442
NCI-H2023	0.202
HCC-78	0.211
SK-LU-1	0.535
PC-3 [JPC-3]	0.681
LOU-NH91	0.474
NCI-H647	0.476
NCI-H23	0.451
EPLC-272H	0.265
NCI-H2126	0.496
ChaGo-K-1	0.596
HCC-44	0.472
NCI-H1734	0.499
NCI-H650	1.01
LK-2	0.668

Cell Line	relative viability
NCI-H2228	0.314
NCI-H1944	0.364
Calu-6	0.515
COR-L23	0.667
EBC-1	0.244
A549	0.139
NCI-H1299	0.264
CAL-12T	0.481
NCI-H520	0.31
IA-LM	0.225
NCI-H661	0.446
COR-L 105	0.237
NCI-H1703	0.234
NCI-H1563	0.604
NCI-H1650	0.493
NCI-H2009	0.605
SK-MES-1	0.373
SW 1573	0.443

Compound: CN1CCC(CC1)OC2=CC(=C(C=C2)NC3=NC=C4C(=N3)N(C(=O)N4C)C5CCCC5)OC [AZ3146] + NC(=O)Nc1cc(-c2cccc(F)c2)sc1C(=O)N[C@H]1CCCNC1 [AZD7762] (partner 0.2 µM)
Experiment: as above
Conditions: first compound 0.08 µM
Outline: as §1

Cell Line	relative viability
NCI-H522	0.803
PC-14	0.343
NCI-H1666	0.819
EKVX	0.506
NCI-H1755	0.502
PC-3 [JPC-3]	0.734
LOU-NH91	0.778
NCI-H647	0.272
NCI-H23	0.157
EPLC-272H	0.136
NCI-H2126	0.932
ChaGo-K-1	0.739
HCC-44	1.02
NCI-H1734	0.262
NCI-H650	0.915
NCI-H2342	0.472
NCI-H1944	0.311
SW 900	0.527
CAL-12T	0.656
NCI-H1703	0.104

Same assay, conditions: first compound 0.253 µM

Cell Line	relative viability
NCI-H522	0.57
PC-14	0.355
NCI-H1666	0.806
EKVX	0.773
NCI-H1755	0.482
HCC-78	0.577
LOU-NH91	0.755
NCI-H647	0.541
NCI-H23	0.3
EPLC-272H	0.199
NCI-H2126	1
ChaGo-K-1	0.91
HCC-44	0.978
NCI-H1734	0.535
NCI-H650	0.652
NCI-H2342	0.481
NCI-H1944	0.509
CAL-12T	0.653
NCI-H1703	0.164

Same assay, conditions: first compound 0.8 µM

Cell Line	relative viability
NCI-H522	0.807
PC-14	0.415
NCI-H1666	0.808
EKVX	0.541
NCI-H1755	0.455
HCC-78	0.57
PC-3 [JPC-3]	0.797
LOU-NH91	0.802
NCI-H647	0.486
NCI-H23	0.27
EPLC-272H	0.175
NCI-H2126	0.948
ChaGo-K-1	0.865
HCC-44	1.12
NCI-H1734	0.545
NCI-H650	0.952
LK-2	0.372
NCI-H2342	0.489
NCI-H1944	0.482
SW 900	0.59
CAL-12T	0.678
NCI-H1648	0.863
NCI-H1703	0.106

Same assay, conditions: first compound 2.53 µM

Cell Line	relative viability
NCI-H522	0.698
PC-14	0.382
NCI-H1666	0.74
EKVX	0.787
NCI-H1755	0.445
HCC-78	0.53
PC-3 [JPC-3]	0.813
LOU-NH91	0.775
NCI-H647	0.342
NCI-H23	0.216
EPLC-272H	0.24
NCI-H2126	1.16
ChaGo-K-1	0.833
HCC-44	1
NCI-H1734	0.563
NCI-H650	1.06
LK-2	0.347
NCI-H2342	0.521
NCI-H1944	0.516
SW 900	0.767
CAL-12T	0.604
NCI-H1648	0.757

Same assay, conditions: first compound 8 µM

Cell Line	relative viability
NCI-H522	0.577
PC-14	0.294
NCI-H1666	0.887
EKVX	0.824
NCI-H1755	0.519
HCC-78	0.717
PC-3 [JPC-3]	0.754
LOU-NH91	0.743
NCI-H647	0.326
NCI-H23	0.163
EPLC-272H	0.237
NCI-H2126	0.998
ChaGo-K-1	0.733
HCC-44	0.979
NCI-H1734	0.337
NCI-H650	1.21
LK-2	0.286
NCI-H2342	0.529
NCI-H1944	0.469
SW 900	0.519
CAL-12T	0.611
NCI-H1648	0.624
NCI-H1703	0.183
